How the values were obtained:
Assay type in all cases: cell-based
Settings in all cases: Table D16
WEE1 = target: T1, WEE1 (Homo sapiens, UniProt P30291+Q96SW2); assay: Western blot degradation of WEE1 (hPBMC)
T1 construct: evaluate the effects of the compounds of the present disclosure on the expression of target proteins in cells; endogenous in cells; host or cells: hPBMC
Experimental: (§1) Conventional Western blot assay was performed to evaluate the effects of the compounds of the present disclosure on the expression of target proteins in cells.
(§2) (1) Cell Seeding and Protein Harvesting: The selected cells were processed according to the cell seeding procedure and protein harvesting procedure in Table III-2. Table III-2 Cell Seeding and Protein Harvesting Procedures
(§3) (2) To the collected supernatant, 5X SDS sample loading buffer was added, followed by denaturation at 95°C for 5 minutes. The denatured samples were then separated by SDS-PAGE electrophoresis on a polyacrylamide gel. Proteins were transferred to a nitrocellulose membrane (0.45 µm NC membrane), blocked with blocking buffer at room temperature for 1 hour, and subjected to antibody incubation and development procedures according to the antibody manufacturer's instructions (Cell Signaling Technology).
(§4) Half-Maximal Degradation Concentration value (the drug concentration required for degrading proteins by 50%, abbreviated as DC50) reads method: comparing the grayscale values of Western blot bands from drug-treated samples with those from blank DMSO-treated controls, and identifying the drug concentration range at which the grayscale value is half that of the DMSO-treated control bands.
(§5) DC50 values can be calculated using ImageJ software to measure grayscale values of Western blot bands from drug-treated samples. The concentration-response curve is fitted to estimate the drug concentration corresponding to half the grayscale value.
(§6) Target protein remaining (%) refers to the percentage of target protein remaining in hPBMC cells after treatment with protein degrader compounds.
(§7) Calculation method for target protein remaining (%): Use ImageJ software to measure grayscale values of Western blot bands from drug (protein degrader)-treated samples. The grayscale value of drug-treated bands is divided by that of internal control protein bands, and the resulting quotient is normalized to obtain the relative percentage of remaining target protein after protein degrader treatment.
(§8) Target protein degradation rate (%) = 100% - target protein remaining (%).

IKZF1 = target: T2, IKZF1 (Homo sapiens, UniProt Q13422+Q96SW2); assay: Western blot degradation of IKZF1 (hPBMC)
T2 construct: evaluate the effects of the compounds of the present disclosure on the expression of target proteins in cells; endogenous in cells; host or cells: hPBMC
Experimental: as §1, §2, §3, §4, §5, §6, §7, §8

IKZF2 = target: T3, IKZF2 (Homo sapiens, UniProt Q96SW2+Q9UKS7); assay: Western blot degradation of IKZF2 (hPBMC)
T3 construct: evaluate the effects of the compounds of the present disclosure on the expression of target proteins in cells; endogenous in cells; host or cells: hPBMC
Experimental: as §1, §2, §3, §4, §5, §6, §7, §8

IKZF3 = target: T4, IKZF3 (Homo sapiens, UniProt Q96SW2+Q9UKT9); assay: Western blot degradation of IKZF3 (hPBMC)
T4 construct: evaluate the effects of the compounds of the present disclosure on the expression of target proteins in cells; endogenous in cells; host or cells: hPBMC
Experimental: as §1, §2, §3, §4, §5, §6, §7, §8

CK1a = target: T5, CK1a (Homo sapiens, UniProt P48729+Q96SW2); assay: Western blot degradation of CK1a (hPBMC)
T5 construct: evaluate the effects of the compounds of the present disclosure on the expression of target proteins in cells; endogenous in cells; host or cells: hPBMC
Experimental: as §1, §2, §3, §4, §5, §6, §7, §8

GSPT1 = target: T6, GSPT1 (Homo sapiens, UniProt P15170+Q96SW2); assay: Western blot degradation of GSPT1 (hPBMC)
T6 construct: evaluate the effects of the compounds of the present disclosure on the expression of target proteins in cells; endogenous in cells; host or cells: hPBMC
Experimental: as §1, §2, §3, §4, §5, §6, §7, §8

T5 sequence (P48729 whole entry): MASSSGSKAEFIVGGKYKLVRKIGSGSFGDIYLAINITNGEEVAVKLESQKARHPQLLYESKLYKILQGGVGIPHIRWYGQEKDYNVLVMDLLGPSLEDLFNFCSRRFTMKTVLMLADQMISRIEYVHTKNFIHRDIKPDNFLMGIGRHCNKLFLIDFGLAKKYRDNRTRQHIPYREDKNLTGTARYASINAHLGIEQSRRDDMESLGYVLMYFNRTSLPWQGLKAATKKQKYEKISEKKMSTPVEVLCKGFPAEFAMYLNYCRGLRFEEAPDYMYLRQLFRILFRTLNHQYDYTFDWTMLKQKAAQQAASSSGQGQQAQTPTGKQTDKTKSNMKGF
T5 sequence (Q96SW2 whole entry): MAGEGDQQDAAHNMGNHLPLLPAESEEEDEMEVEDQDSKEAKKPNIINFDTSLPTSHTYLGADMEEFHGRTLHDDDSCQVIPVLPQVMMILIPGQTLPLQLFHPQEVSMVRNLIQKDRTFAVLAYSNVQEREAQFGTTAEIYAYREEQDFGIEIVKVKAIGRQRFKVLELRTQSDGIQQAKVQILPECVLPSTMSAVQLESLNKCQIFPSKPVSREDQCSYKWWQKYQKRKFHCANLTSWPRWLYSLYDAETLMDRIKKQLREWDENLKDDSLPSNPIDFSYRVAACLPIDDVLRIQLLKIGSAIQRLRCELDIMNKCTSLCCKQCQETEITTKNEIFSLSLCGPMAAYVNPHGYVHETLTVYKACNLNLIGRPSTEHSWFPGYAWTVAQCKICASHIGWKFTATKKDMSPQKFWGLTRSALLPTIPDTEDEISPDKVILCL
T5 sequence (Q16531 whole entry partner): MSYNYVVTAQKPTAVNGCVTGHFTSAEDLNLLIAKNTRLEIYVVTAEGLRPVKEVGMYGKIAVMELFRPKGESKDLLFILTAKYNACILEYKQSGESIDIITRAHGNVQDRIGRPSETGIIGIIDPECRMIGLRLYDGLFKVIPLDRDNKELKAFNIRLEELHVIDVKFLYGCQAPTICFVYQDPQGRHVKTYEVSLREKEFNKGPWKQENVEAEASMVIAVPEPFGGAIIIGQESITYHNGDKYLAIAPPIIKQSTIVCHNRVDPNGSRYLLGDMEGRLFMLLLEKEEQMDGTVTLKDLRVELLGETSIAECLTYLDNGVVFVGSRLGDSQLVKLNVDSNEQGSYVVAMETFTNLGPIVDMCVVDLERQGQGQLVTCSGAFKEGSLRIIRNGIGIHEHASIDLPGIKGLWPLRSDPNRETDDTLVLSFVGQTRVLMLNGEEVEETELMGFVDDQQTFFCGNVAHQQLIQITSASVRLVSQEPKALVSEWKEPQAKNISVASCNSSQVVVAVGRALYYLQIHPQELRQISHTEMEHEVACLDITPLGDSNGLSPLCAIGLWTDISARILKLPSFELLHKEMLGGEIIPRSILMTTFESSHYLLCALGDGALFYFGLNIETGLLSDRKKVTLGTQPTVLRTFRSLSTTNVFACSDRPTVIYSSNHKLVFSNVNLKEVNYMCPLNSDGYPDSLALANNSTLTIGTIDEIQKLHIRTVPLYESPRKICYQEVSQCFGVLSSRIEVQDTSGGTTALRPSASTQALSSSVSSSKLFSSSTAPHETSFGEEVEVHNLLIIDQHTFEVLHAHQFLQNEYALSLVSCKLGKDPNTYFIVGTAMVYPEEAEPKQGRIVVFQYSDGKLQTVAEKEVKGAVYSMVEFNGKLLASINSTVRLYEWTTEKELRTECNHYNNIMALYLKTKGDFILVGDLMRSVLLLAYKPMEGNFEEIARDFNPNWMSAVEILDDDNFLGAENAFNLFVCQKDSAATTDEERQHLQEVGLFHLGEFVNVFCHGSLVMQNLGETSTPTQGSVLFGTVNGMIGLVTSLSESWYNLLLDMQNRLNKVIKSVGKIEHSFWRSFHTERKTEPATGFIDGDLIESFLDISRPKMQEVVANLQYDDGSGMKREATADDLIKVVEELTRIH
T1 sequence (P30291 whole entry): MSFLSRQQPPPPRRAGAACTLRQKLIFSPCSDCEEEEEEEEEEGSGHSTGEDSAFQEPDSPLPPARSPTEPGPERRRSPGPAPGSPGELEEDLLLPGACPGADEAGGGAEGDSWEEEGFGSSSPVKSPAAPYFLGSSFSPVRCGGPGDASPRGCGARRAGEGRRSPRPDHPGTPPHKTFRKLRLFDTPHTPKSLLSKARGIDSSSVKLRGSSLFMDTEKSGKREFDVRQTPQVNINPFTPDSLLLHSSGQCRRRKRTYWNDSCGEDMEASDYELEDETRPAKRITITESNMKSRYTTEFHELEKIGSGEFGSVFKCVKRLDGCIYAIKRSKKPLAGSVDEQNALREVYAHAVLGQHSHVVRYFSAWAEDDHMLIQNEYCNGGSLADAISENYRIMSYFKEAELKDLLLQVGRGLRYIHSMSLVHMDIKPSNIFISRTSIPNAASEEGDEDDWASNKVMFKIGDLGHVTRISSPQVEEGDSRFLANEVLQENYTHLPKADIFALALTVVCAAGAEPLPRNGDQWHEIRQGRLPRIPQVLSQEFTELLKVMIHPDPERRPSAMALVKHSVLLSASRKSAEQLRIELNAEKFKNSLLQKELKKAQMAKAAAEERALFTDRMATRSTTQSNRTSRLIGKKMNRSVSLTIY
T1 sequence (Q96SW2 whole entry): as the sequence (Q96SW2 whole entry) above
T1 sequence (Q16531 whole entry partner): as the sequence (Q16531 whole entry partner) above
T3 sequence (Q9UKS7 whole entry): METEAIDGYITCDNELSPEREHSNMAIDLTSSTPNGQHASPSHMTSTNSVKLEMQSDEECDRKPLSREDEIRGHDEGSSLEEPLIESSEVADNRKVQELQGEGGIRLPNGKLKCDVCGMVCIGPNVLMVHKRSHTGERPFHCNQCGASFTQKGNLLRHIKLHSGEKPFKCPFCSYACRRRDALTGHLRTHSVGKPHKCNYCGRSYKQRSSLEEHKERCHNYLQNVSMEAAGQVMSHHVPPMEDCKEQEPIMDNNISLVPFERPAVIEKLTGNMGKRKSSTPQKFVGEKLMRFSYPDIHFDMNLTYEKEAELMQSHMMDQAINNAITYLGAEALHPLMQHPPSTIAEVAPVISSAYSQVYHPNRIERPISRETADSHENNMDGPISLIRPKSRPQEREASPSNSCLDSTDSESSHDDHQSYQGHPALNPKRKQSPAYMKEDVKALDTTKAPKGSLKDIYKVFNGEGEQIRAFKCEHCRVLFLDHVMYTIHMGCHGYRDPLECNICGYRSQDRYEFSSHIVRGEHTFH
T3 sequence (Q96SW2 whole entry): as the sequence (Q96SW2 whole entry) above
T3 sequence (Q16531 whole entry partner): as the sequence (Q16531 whole entry partner) above
T2 sequence (Q13422 whole entry): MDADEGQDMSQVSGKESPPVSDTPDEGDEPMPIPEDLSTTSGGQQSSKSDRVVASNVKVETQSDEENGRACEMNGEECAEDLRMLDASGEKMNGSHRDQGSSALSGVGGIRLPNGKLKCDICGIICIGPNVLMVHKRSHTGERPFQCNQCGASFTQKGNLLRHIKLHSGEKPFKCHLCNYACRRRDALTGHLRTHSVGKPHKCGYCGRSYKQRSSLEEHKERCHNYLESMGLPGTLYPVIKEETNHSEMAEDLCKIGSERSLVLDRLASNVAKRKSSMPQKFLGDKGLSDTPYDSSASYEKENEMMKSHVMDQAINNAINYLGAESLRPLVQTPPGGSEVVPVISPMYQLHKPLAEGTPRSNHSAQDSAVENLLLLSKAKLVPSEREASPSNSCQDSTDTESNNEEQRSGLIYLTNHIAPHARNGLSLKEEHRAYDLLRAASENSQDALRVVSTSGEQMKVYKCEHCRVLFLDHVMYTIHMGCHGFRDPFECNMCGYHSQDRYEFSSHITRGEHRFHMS
T2 sequence (Q96SW2 whole entry): as the sequence (Q96SW2 whole entry) above
T2 sequence (Q16531 whole entry partner): as the sequence (Q16531 whole entry partner) above
T4 sequence (Q9UKT9 whole entry): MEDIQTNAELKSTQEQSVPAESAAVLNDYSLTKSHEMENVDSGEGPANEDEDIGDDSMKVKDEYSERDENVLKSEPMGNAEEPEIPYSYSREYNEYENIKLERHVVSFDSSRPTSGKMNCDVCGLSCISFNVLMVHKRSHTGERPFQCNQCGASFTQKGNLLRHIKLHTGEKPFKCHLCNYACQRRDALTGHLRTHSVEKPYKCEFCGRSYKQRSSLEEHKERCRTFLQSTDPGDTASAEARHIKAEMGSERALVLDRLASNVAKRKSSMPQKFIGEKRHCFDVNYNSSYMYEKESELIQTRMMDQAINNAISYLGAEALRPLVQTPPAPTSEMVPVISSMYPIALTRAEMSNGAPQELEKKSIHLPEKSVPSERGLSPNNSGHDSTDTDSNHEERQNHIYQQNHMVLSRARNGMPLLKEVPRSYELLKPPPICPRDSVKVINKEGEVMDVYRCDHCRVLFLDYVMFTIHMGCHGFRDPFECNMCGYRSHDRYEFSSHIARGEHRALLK
T4 sequence (Q96SW2 whole entry): as the sequence (Q96SW2 whole entry) above
T4 sequence (Q16531 whole entry partner): as the sequence (Q16531 whole entry partner) above

SMILES	Degradation of substrate protein WEE1 (substrate protein remaining %) (WEE1)	Degradation of substrate protein IKZF1 (substrate protein remaining %) (IKZF1)	Degradation of substrate protein IKZF2 (substrate protein remaining %) (IKZF2)	Degradation of substrate protein IKZF3 (substrate protein remaining %) (IKZF3)	Degradation of substrate protein CKla (substrate protein remaining %) (CK1a)	Degradation of substrate protein GSPT1 (substrate protein remaining %) (GSPT1)
O=C1CCC(c2cnc(F)c(CO)c2)C(=O)N1 (stereo not drawn) [GT-07074, 3-(6-Fluoro-5-(hydroxymethyl)pyridin-3-yl)piperidine-2,6-dione]	B (B is defined as substrate protein remaining % > 80%)	B (B is defined as substrate protein remaining % > 80%)	A (A is defined as 0% ≤ substrate protein remaining % ≤ 80%)	A (A is defined as 0% ≤ substrate protein remaining % ≤ 80%)	B (B is defined as substrate protein remaining % > 80%)	A (A is defined as 0% ≤ substrate protein remaining % ≤ 80%)
O=C1CCC(c2ccc(CO)cn2)C(=O)N1 (stereo not drawn) [GT-07075, 3-(5-(Hydroxymethyl)pyridin-2-yl)piperidine-2,6-dione]	B (B is defined as substrate protein remaining % > 80%)	B (B is defined as substrate protein remaining % > 80%)	A (A is defined as 0% ≤ substrate protein remaining % ≤ 80%)	A (A is defined as 0% ≤ substrate protein remaining % ≤ 80%)	B (B is defined as substrate protein remaining % > 80%)	A (A is defined as 0% ≤ substrate protein remaining % ≤ 80%)
O=C1CCC(Nc2ncccc2CO)C(=O)N1 (stereo not drawn) [GT-07197, 3-((3-(Hydroxymethyl)pyridin-2-yl)amino)piperidine-2,6-dione]	B (B is defined as substrate protein remaining % > 80%)	B (B is defined as substrate protein remaining % > 80%)	B (B is defined as substrate protein remaining % > 80%)	B (B is defined as substrate protein remaining % > 80%)	A (A is defined as 0% ≤ substrate protein remaining % ≤ 80%)	A (A is defined as 0% ≤ substrate protein remaining % ≤ 80%)
O=C1CCC(c2ncc(CO)cc2F)C(=O)N1 (stereo not drawn) [GT-07443, 3-(3-Fluoro-5-(hydroxymethyl)pyridin-2-yl)piperidine-2,6-dione]	A (A is defined as 0% ≤ substrate protein remaining % ≤ 80%)	A (A is defined as 0% ≤ substrate protein remaining % ≤ 80%)	A (A is defined as 0% ≤ substrate protein remaining % ≤ 80%)	B (B is defined as substrate protein remaining % > 80%)	A (A is defined as 0% ≤ substrate protein remaining % ≤ 80%)	A (A is defined as 0% ≤ substrate protein remaining % ≤ 80%)
O=C1CCC(c2cc(CO)c(F)cn2)C(=O)N1 (stereo not drawn) [GT-07444, 3-(5-Fluoro-4-(hydroxymethyl)pyridin-2-yl)piperidine-2,6-dione]	B (B is defined as substrate protein remaining % > 80%)	B (B is defined as substrate protein remaining % > 80%)	A (A is defined as 0% ≤ substrate protein remaining % ≤ 80%)	A (A is defined as 0% ≤ substrate protein remaining % ≤ 80%)	B (B is defined as substrate protein remaining % > 80%)	B (B is defined as substrate protein remaining % > 80%)
CC(C)(C)[Si](C)(C)OCc1cncc(NC2CCC(=O)NC2=O)c1 (stereo not drawn) [GT-07449, 3-((5-(((tert-Butyldimethylsilyl)oxy)methyl)pyridin-3-yl)amino)piperidine-2,6-dione]	B (B is defined as substrate protein remaining % > 80%)	B (B is defined as substrate protein remaining % > 80%)	A (A is defined as 0% ≤ substrate protein remaining % ≤ 80%)	B (B is defined as substrate protein remaining % > 80%)	B (B is defined as substrate protein remaining % > 80%)	B (B is defined as substrate protein remaining % > 80%)
O=C1CCN(c2cnc(F)c(CO)c2)C(=O)N1 [GT-07556, 1-(6-Fluoro-5-(hydroxymethyl)pyridin-3-yl)dihydropyrimidine-2,4(1H,3H)-dione]	A (A is defined as 0% ≤ substrate protein remaining % ≤ 80%)	A (A is defined as 0% ≤ substrate protein remaining % ≤ 80%)	B (B is defined as substrate protein remaining % > 80%)	A (A is defined as 0% ≤ substrate protein remaining % ≤ 80%)	A (A is defined as 0% ≤ substrate protein remaining % ≤ 80%)	B (B is defined as substrate protein remaining % > 80%)
O=C1CCC(c2ccc(CO)nc2F)C(=O)N1 (stereo not drawn) [GT-07558, 3-(2-Fluoro-6-(hydroxymethyl)pyridin-3-yl)piperidine-2,6-dione]	A (A is defined as 0% ≤ substrate protein remaining % ≤ 80%)	A (A is defined as 0% ≤ substrate protein remaining % ≤ 80%)	B (B is defined as substrate protein remaining % > 80%)	B (B is defined as substrate protein remaining % > 80%)	A (A is defined as 0% ≤ substrate protein remaining % ≤ 80%)	B (B is defined as substrate protein remaining % > 80%)
O=C1CCC(Nc2cnccc2CO)C(=O)N1 (stereo not drawn) [GT-07559, 3-((4-(Hydroxymethyl)pyridin-3-yl)amino)piperidine-2,6-dione]	A (A is defined as 0% ≤ substrate protein remaining % ≤ 80%)	A (A is defined as 0% ≤ substrate protein remaining % ≤ 80%)	A (A is defined as 0% ≤ substrate protein remaining % ≤ 80%)	A (A is defined as 0% ≤ substrate protein remaining % ≤ 80%)	A (A is defined as 0% ≤ substrate protein remaining % ≤ 80%)	A (A is defined as 0% ≤ substrate protein remaining % ≤ 80%)
O=C1CCN(c2cncc(CO)n2)C(=O)N1 [GT-07632, 1-(6-(Hydroxymethyl)pyrazin-2-yl)dihydropyrimidine-2,4(1H,3H)-dione]	A (A is defined as 0% ≤ substrate protein remaining % ≤ 80%)	A (A is defined as 0% ≤ substrate protein remaining % ≤ 80%)	A (A is defined as 0% ≤ substrate protein remaining % ≤ 80%)	A (A is defined as 0% ≤ substrate protein remaining % ≤ 80%)	A (A is defined as 0% ≤ substrate protein remaining % ≤ 80%)	B (B is defined as substrate protein remaining % > 80%)
O=C1CCN(c2cnc(CO)cn2)C(=O)N1 [GT-07634, 1-(5-(Hydroxymethyl)pyrazin-2-yl)dihydropyrimidine-2,4(1H,3H)-dione]	A (A is defined as 0% ≤ substrate protein remaining % ≤ 80%)	A (A is defined as 0% ≤ substrate protein remaining % ≤ 80%)	A (A is defined as 0% ≤ substrate protein remaining % ≤ 80%)	A (A is defined as 0% ≤ substrate protein remaining % ≤ 80%)	A (A is defined as 0% ≤ substrate protein remaining % ≤ 80%)	B (B is defined as substrate protein remaining % > 80%)
